For one data set, the target named is EGFR T790M (Homo sapiens (Human), UniProt P00533, T790M). Briefly: Mobility Shift Assay, in vitro enzyme-inhibiting activity, EGFR T790M. Type of data set: biochemical. The conditions noted are these: for IC50: Km ATP; for Selectivity (WT/T790M): ratio of IC50. The gist of the method: (§1)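 Compounds in 4-fold dilutions (10 concentrations) preincubated 10 min at room temperature with enzyme, then kinase reaction at 28° C for kinase-dependent time before stop solution. Percent substrate conversion read by Caliper mobility shift; inhibition versus DMSO and blank controls, IC50 fitted.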

For the next data set, the target named is EGFR L858R (Homo sapiens (Human), UniProt P00533, L858R). The data set can be described thus: Mobility Shift Assay, in vitro enzyme-inhibiting activity, EGFR L858R. The conditions noted are these: for IC50: Km ATP; for Selectivity WT/L858R: ratio of IC50. Type of data set: biochemical. The gist of the method:
as §1

In a further data set the target is EGFR T790M-L858R (Homo sapiens (Human), UniProt P00533, L858R/T790M). The data set can be described thus: Mobility Shift Assay, in vitro enzyme-inhibiting activity, EGFR T790M-L858R. Type of data set: biochemical. The conditions noted are these: for IC50: Km ATP; for Selectivity WT/T790M-L858R: ratio of IC50. The method in brief:
as §1

A short description of the next data set: Pharmacokinetics in rat. Format: in vivo. To be noted: male, plasma, SD rat; for bioavailability: read-out: F (absolute bioavailability). How it is done:
Test animal: male SD rat, 3 rats, weight: 200-250 g/rat
Blank solvent for intragastric administration (po) of Compound 2, 27: 0.1% Tween 80+2% HPC (hydroxypropyl cellulose),
Preparation: HPC (hydroxypropyl cellulose) (20 g) was weighed, and slowly added to purified water (1000 mL) under stirring, and Tween 80 (1 mL) was added. The mixture was stirred until it became clear, to get a blank solvent of 0.1% Tween 80+2% HPC. Compound 2 (3.21 mg) and Compound 27 (3.03 mg) were weighed, respectively, solvent was added, and the resultant mixture was placed in a tissue grinder, and ground at a speed of 1000 r/min. After homogeneous dispersion, a solution for intragastric administration at a theoretical concentration of 0.5 mg/mL was obtained. […] After homogeneous dispersion, a solution for intragastric administration at a theoretical concentration of 1.0 mg/mL was obtained.
A blank solvent for intravenous injection (iv) for Compound 2, 27, 31: 5% DMSO+10% PEG400+85% (28% HP-β-CD)
Compound 2 (2.98 mg), Compound 27 (2.98 mg), and Compound 31 (3.27 mg) were weighed, respectively, and blank solvent for intravenous injection was added. The resultant mixture was mixed homogeneously under vortexing, placed in a 50° C. constant temperature water bath for 20 min, and filtrated through a 0.22 μm filter membrane to get a clear and transparent solution for intravenous injection at a theoretical concentration of 0.5 mg/mL.
Formulation of Compound 31 for intravenous injection (iv): 20% DMF+20% PEG400+60% sterile water for injection
Compound 31 (3.10 mg) was weighed, and dissolved in 1.262 mL DMF (N,N-dimethylformamide) ultrasonically. 1.262 mL PEG400 was added, and the resultant mixture was mixed homogeneously under vortexing. 3.786 mL sterile water for injection was added. The mixture was vertexed homogeneously to get a clear and transparent solution for intravenous injection at a theoretical concentration of 0.5 mg/ml.
po: 0.167 h, 0.5 h, 1 h, 2 h, 4 h, 6 h, 8 h, 24 h after administration.
About 100 μL whole blood was collected from caudal vein at each time point, added to an anticoagulation tube containing K2EDTA, and centrifuged at 8000 r/min for 6 min in a low-temperature centrifuge to separate the plasma; the plasma was stored in a refrigerator at −80° C.
The plasma samples of Compound 2, 27, and 31 were analyzed by means of protein precipitation: to 30 μL plasma, 200 μL internal standard (acetonitrile solution containing 50 ng/mL CNX-2006, the structure of which is
[drawing 56] prepared by reference to the method in Patent WO2012064706A1) was added; the resultant mixture was vortexted for 10 min at 1000 r/min, and centrifuged for 20 min at 4000 r/min; to 100 μL supernatant, 100 μL water was added; the resultant mixture was mixed homogeneously under vortexing and analyzed by LC-MS/MS.

Data set [1] in a line: Pharmacokinetics in nude mouse. Type of data set: in vivo. The conditions noted are these: female, BALB/c nude, plasma; for bioavailability: read-out: F (absolute bioavailability). As to the method:
Test animal: female nude mouse (BALB/c), weight: 20-25 g/mouse.
Solvent for intraveneous injection (iv): 5% DMSO+10% PEG400+85% (28% HP-β-CD)
Solvent for intragastric administration (po): 2% HPC+0.1% Tween 80
0.1283 mL and 0.1059 mL 1M hydrochloric acid solution were separately added to adjust pH to 4.
Compound 2, 27: Compound 27 (3.18 mg) and Compound 2 (3.17 mg) were weighed, respectively, and solvent for intraveneous injection was added to prepare a clear and transparent solution at a theoretical concentration of 1.0 mg/mL.
After homogeneous dispersion, a suspension at a theoretical concentration of 1.0 mg/mL was obtained.
Collection time point: 0.083 h, 0.25 h, 0.5 h, 1 h, 2 h, 4 h, 6 h, 8 h after administration.
60 μL whole blood was collected from intraocular canthus at each time point, and was centrifuged at 8000 r/min for 6 min in a low-temperature centrifuge to separate plasma; the plasma was stored in a refrigerator at −80° C.
The plasma sample of Compound 2 was analyzed by means of protein precipitation: 10 μL plasma was transferred to a 1.5 mL EP tube, 10 μL blank plasma was added, and the mixture was mixed homogeneously under vortexing. 200 μL internal standard (acetonitrile solution containing 25 ng/mL CNX-2006) was added; the resultant mixture was vortexted for 3 min, and then centrifuged at 12000 rpm for 5 min; 150 μL supernatant was accurately taken, to which 50 μL purified water was added. The resultant mixture was vortexed for 3 min and analyzed by LC-MS/MS.

[2] abbreviates: Table 8, read-out: IC50 EGFRT790M-L858R.
The mark [3] stands for this setting: po, 7.6 mg/kg, solid dispersed sample in pH 4.0 buffer.

For orientation: IC50 means the concentration at which inhibition is half-maximal. By AUC(0-t) is commonly meant exposure summed from dosing to a finite time, without extrapolation to infinity. As a reminder, the clearance is the volume of plasma or blood freed of the substance per unit of time. What is called bioavailability is the share of a dose that reaches the circulation, judged against a reference dose that is usually intravenous.

Like-named read-outs stand apart in the source and are kept apart here.

EGFR T790M, sequence (P00533 25-1210 T790M): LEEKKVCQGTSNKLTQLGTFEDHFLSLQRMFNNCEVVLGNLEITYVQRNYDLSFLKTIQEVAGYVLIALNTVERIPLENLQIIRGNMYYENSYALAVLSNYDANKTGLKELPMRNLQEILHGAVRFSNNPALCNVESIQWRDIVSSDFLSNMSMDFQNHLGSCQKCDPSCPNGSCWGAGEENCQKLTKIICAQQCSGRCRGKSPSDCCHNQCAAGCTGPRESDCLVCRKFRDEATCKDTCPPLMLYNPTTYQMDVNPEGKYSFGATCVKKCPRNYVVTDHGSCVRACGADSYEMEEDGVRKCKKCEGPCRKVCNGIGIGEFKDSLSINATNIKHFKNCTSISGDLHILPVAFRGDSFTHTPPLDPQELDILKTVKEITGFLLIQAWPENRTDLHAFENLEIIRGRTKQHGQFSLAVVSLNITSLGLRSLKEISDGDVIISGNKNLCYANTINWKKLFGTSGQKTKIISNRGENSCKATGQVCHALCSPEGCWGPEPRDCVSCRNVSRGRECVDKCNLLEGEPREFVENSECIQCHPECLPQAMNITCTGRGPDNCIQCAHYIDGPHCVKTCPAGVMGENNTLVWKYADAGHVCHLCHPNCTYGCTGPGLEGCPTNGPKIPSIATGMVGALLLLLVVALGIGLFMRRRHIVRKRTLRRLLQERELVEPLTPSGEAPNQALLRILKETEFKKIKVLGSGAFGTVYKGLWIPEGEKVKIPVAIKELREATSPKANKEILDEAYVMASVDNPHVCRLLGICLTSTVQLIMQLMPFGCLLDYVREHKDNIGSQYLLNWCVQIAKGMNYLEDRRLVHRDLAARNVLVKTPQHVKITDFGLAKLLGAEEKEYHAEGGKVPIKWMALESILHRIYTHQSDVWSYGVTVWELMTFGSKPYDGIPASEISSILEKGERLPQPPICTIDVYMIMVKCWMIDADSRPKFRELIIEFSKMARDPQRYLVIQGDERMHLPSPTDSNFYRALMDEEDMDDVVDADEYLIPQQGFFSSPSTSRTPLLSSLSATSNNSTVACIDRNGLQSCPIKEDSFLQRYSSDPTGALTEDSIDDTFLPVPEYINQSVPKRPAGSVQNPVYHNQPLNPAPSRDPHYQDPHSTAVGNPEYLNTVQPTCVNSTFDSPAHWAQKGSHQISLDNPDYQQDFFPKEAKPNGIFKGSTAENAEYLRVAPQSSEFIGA
EGFR L858R, sequence (P00533 25-1210 L858R): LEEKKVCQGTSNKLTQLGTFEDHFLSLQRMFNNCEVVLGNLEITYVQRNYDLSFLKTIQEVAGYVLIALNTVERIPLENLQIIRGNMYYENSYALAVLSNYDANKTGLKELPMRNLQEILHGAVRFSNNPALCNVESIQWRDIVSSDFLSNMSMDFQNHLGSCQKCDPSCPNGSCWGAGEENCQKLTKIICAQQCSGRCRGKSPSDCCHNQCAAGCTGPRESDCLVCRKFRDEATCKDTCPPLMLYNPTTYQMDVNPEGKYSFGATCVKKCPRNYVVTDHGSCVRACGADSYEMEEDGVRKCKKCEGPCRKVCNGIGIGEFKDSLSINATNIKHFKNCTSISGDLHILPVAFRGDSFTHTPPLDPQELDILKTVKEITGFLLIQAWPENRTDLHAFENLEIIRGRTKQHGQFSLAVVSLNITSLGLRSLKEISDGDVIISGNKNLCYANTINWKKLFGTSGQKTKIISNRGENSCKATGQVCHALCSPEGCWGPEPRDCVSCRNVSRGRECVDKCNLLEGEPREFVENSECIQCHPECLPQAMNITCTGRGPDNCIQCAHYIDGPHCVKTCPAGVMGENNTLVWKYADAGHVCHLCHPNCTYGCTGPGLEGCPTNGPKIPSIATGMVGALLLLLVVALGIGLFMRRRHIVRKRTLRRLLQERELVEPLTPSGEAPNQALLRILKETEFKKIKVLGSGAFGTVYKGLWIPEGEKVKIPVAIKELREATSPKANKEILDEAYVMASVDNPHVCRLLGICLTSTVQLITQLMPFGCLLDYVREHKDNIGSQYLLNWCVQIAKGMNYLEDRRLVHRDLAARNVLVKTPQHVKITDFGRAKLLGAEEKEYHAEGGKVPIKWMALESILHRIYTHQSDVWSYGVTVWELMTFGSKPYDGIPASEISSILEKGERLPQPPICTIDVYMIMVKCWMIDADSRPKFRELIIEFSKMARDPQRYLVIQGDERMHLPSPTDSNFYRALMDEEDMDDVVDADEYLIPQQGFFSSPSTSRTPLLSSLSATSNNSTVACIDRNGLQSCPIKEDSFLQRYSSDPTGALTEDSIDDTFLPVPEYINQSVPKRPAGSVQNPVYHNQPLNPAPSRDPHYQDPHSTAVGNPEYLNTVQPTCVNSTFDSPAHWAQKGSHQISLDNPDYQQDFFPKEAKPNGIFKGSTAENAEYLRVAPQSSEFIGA
EGFR T790M-L858R, sequence (P00533 25-1210 T790M/L858R): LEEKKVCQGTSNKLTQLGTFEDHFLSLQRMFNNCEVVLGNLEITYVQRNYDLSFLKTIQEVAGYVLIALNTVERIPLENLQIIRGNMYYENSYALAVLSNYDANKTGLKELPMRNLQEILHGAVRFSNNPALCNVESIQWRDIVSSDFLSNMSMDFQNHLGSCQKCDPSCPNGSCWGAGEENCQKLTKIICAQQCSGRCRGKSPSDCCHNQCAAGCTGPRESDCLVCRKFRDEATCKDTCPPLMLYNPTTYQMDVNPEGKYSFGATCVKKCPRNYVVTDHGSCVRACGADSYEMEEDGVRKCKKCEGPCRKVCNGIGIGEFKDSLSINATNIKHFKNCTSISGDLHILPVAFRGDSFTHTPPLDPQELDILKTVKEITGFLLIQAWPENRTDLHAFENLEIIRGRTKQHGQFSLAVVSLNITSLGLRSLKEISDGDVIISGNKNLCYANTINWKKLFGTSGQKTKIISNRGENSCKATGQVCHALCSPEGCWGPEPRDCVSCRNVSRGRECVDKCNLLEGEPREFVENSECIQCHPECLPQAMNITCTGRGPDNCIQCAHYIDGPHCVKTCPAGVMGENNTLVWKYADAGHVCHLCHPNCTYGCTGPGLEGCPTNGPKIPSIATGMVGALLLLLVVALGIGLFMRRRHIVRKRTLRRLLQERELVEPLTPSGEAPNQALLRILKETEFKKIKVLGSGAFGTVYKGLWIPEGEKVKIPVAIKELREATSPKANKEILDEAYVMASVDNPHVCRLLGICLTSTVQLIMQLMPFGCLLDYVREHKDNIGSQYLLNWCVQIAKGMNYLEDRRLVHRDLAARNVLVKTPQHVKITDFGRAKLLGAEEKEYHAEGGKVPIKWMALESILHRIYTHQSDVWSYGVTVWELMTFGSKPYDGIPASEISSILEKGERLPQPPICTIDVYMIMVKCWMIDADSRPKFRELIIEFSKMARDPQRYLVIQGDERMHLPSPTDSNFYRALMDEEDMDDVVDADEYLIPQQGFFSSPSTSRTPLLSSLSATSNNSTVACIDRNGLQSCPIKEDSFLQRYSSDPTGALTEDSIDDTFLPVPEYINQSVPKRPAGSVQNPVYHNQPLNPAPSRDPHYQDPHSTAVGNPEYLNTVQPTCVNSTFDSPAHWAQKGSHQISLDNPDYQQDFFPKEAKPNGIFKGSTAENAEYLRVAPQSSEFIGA

For `C=CC(=O)Nc1cccc(Nc2nc(Nc3ccc(C4CCN(C(C)=O)CC4)cc3OC)ncc2C(F)(F)F)c1` [Compound 2, N-(3-((2-((4-(1-acetylpiperidin-4-yl)-2-methoxyphenyl)amino)-5-(trifluoromethyl)pyrimidin-4-yl)amino)phenyl)acrylamide], the values for the IC50 on EGFR T790M (Table 1), on EGFR L858R (Table 5) and on EGFR T790M-L858R (Table 5) were 6.2 nM, 91.8 nM and 2.5 nM, respectively. In addition, the “Selectivity (WT/T790M)” value at EGFR T790M (Table 1) is 89.0. The “Selectivity WT/L858R” value on EGFR L858R (Table 5) stood at 3.7. In addition, the “Selectivity WT/T790M-L858R” value at EGFR T790M-L858R (Table 5) was 140.2. In addition, the exposure AUC(0-t) in “Pharmacokinetics in rat” (iv, 1 mg/kg) came to 723 ng·h/mL; in “Pharmacokinetics in rat” (po, 2 mg/kg), 267 ng·h/mL; in data set [1] (iv, 5 mg/kg) it was 6300 ng·h/mL; in data set [1] (po, 10 mg/kg), 5660 ng·h/mL. Moreover, the clearance in the data set “Pharmacokinetics in rat” (iv, 1 mg/kg) was 26 mL/min/kg; in data set [1] (iv, 5 mg/kg) it was 13.2 mL/min/kg. The bioavailability in “Pharmacokinetics in rat” (po, 2 mg/kg) turned out to be 19%; in data set [1] (po, 10 mg/kg), 48%.
On to `C=CC(=O)Nc1cccc(Nc2nc(Nc3ccc(C4CCN(S(C)(=O)=O)CC4)cc3OC)ncc2C(F)(F)F)c1` [Compound 27, N-(3-((2-((2-methoxy-4-(1-(methylsulfonyl)piperidin-4-yl)phenyl)amino)-5-(trifluoromethyl)pyrimidin-4-yl)amino)phenyl)acrylamide], for which the IC50 on EGFR T790M (Table 4, unit inferred) came to 9.6 nM; on EGFR L858R (Table 8), 88 nM; at EGFR T790M-L858R (setting [2]) it was 9.8 nM. In addition, at EGFR T790M (Table 4), the “Selectivity (WT/T790M)” value is given as 90.7. In addition, the AUC(0-t) was 774 ng·h/mL in “Pharmacokinetics in rat” (iv, 1 mg/kg); 754 ng·h/mL in the data set “Pharmacokinetics in rat” (po, 2 mg/kg); 11600 ng·h/mL in data set [1] (iv, 5 mg/kg); 9790 ng·h/mL in data set [1] (setting [3]). In addition, the clearance in the data set “Pharmacokinetics in rat” (iv, 1 mg/kg) is 22.7 mL/min/kg; in data set [1] (iv, 5 mg/kg), 7.17 mL/min/kg. In addition, the bioavailability was 49% in the data set “Pharmacokinetics in rat” (po, 2 mg/kg) and 56% in data set [1] (setting [3]).
Regarding `C=CC(=O)Nc1cccc(Nc2nc(Nc3ccc(N4CCC(N5CCOCC5)CC4)cc3OC)ncc2C(F)(F)F)c1` [Compound 28, N-(3-((2-((2-methoxy-4-(4-morpholinopiperidin-1-yl)phenyl)amino)-5-(trifluoromethyl)pyrimidin-4-yl)amino)phenyl)acrylamide], the IC50 was 1.2 nM at EGFR T790M (Table 4, unit inferred); 11 nM on EGFR L858R (Table 8); 1.5 nM on EGFR T790M-L858R (setting [2]). Further, on EGFR T790M (Table 4), the “Selectivity (WT/T790M)” value came out at 60.8.
For `C=CC(=O)Nc1cccc(Nc2nc(Nc3ccc(N4CC5(CN(C(C)=O)C5)C4)cc3OC)ncc2C(F)(F)F)c1` [Compound 31, N-(3-((2-((4-(6-acetyl-2,6-diazaspiro[3.3]heptan-2-yl)-2-methoxyphenyl)amino)-5-(trifluoromethyl)pyrimidin-4-yl)amino)phenyl)acrylamide], at EGFR T790M (Table 7), the IC50 is 3.55 nM and the “Selectivity (WT/T790M)” value amounted to 59.2. At EGFR L858R (Table 7), the IC50 came to 39.3 nM and the “Selectivity WT/L858R” value was determined as 5.4. Also, at EGFR T790M-L858R (Table 7), the IC50 was found to be 4.73 nM and the “Selectivity WT/T790M-L858R” value amounted to 44.4. For the same molecule, in “Pharmacokinetics in rat” (iv, 0.74 mg/kg), the AUC(0-t) was determined as 1020 ng·h/mL and the clearance was 12.2 mL/min/kg.

The record behind these values is US10300058B2, “Tyrosine kinase inhibitor and uses thereof” (Xuanzhu Pharma Co., Ltd., priority 2014, dated 2019).
